Source: ChEMBL document CHEMBL5344440, “Fragment Merging, Growing, and Linking Identify New Trypanothione Reductase Inhibitors for Leishmaniasis” (J Med Chem, 2024)
One block for each compound: values may come before it.

How the values were obtained:
[1] = target: Trypanothione reductase (Leishmania infantum) (UniProt A4HSF7); assay: Inhibition of Leishmania infantum Trypanothione reductase expressed in Escherichia coli BL21 (DE3) assessed as enzyme residual activity using trypanothione as substrate at 100 uM preincubated for 3 mins followed NADPH addition by spectrophotometric analysis
Sequence of Trypanothione reductase (Leishmania infantum) (A4HSF7 as listed by the source): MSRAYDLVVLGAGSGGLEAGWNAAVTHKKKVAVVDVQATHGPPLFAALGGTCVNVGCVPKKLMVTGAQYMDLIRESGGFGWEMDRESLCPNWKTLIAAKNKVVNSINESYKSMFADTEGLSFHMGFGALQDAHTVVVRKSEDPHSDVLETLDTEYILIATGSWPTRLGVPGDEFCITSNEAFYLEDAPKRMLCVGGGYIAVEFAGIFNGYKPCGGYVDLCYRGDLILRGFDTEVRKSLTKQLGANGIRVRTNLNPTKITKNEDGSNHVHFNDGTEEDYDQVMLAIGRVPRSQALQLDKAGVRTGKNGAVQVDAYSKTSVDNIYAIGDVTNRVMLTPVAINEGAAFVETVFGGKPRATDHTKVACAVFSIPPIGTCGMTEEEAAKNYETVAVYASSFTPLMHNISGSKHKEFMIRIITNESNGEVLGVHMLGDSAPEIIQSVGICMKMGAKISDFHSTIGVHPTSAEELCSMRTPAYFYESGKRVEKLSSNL

[2] = test system: glutathione reductase versus Leishmania infantum trypanothione reductase; assay: Selectivity index, ratio of IC50 for inhibition of human glutathione reductase expressed in Escherichia coli cells to IC50 for inhibition of Leishmania infantum Trypanothione reductase expressed in Escherichia coli BL21 (DE3); assay type: toxicity; settings: read-out: Ratio IC50
THP-1 = assay: (§1) Cytotoxicity against PMA-differentiated human THP-1 cells assessed as reduction in cell viability measured after 72 hrs by MTT assay; assay type: toxicity, cell-based; settings: thp-1, 72 h
[3] = Selectivity index, ratio of CC50 for cytotoxicity against human THP-1 cells to EC50 for antileishmanial activity against axenic amastigote form of Leishmania infantum MHOM/TN/80/IPT1; assay type: toxicity, cell-based; settings: read-out: Ratio CC50/EC50
Peritoneal macrophage = assay: (§2) Cytotoxicity against BALB/c mouse peritoneal macrophages assessed as reduction in cell viability measured after 72 hrs by MTT assay; assay type: toxicity, cell-based; settings: peritoneal macrophage, 72 h
Leishmania infantum [4] = assay: Antileishmanial activity against axenic amastigote form of Leishmania infantum MHOM/TN/80/IPT1 assessed as parasite growth inhibition measured after 72 hrs by MTT assay; assay type: functional, organism-based; settings: MHOM/TN/80/IPT1, 72 h
[5] = target: Trypanothione reductase (Leishmania infantum) (UniProt A4HSF7); assay: Inhibition of Leishmania infantum Trypanothione reductase expressed in Escherichia coli BL21 (DE3) assessed as enzyme residual activity using trypanothione as substrate at 10 uM preincubated for 3 mins followed NADPH addition by spectrophotometric analysis
[6] = as §1; assay type: toxicity, cell-based; settings: PMA-differentiated THP-1 cells
[7] = as §2; assay type: toxicity, cell-based, Peritoneal macrophage; settings: BALB/c, peritoneal macrophages
Leishmania infantum [8] = assay: Antileishmanial activity against amastigote form of Leishmania infantum infected in BALB/c mouse macrophages assessed as reduction in parasite infection at 12.5 uM measured after 72 hrs by Giemsa staining based optical microscopy relative to control; assay type: functional

SMILES: O=C(NCCc1ccc(F)cc1)c1ccc(CN(C(=O)N2CCN(CCCN3c4ccccc4Sc4ccc(Cl)cc43)CC2)c2ccc(F)cc2)o1
selectivity ratio [2]: 0.4 | CC50 (THP-1): 6.5 µM | selectivity ratio [3]: 0.5 | CC50 (Peritoneal macrophage): 9.1 µM

SMILES: C[C@@H]1[C@H](O)[C@@H](C)/C=C/C=C/C=C/C=C/C=C/C=C/C=C/[C@H](O[C@@H]2O[C@H](C)[C@@H](O)[C@H](N)[C@@H]2O)C[C@@H]2O[C@](O)(C[C@@H](O)C[C@@H](O)[C@H](O)CC[C@@H](O)C[C@@H](O)CC(=O)O[C@H]1C)C[C@H](O)[C@H]2C(=O)O [AMPHOTERICIN B]
EC50 (Leishmania infantum [4]): 0.5 µM

SMILES: O=C(NCCc1ccccc1)c1ccc(CN(C(=O)N2CCN(Cc3ccc(Cl)c(Cl)c3)CC2)c2ccc(F)cc2)o1
Activity [5]: 94.1% | EC50 (Leishmania infantum [4]): 10.3 µM | CC50 at 72 h [6]: 11.7 µM | selectivity ratio [3]: 1.1 | CC50 at 72 h [7]: 14.4 µM

SMILES: O=C(NCCc1ccc(F)cc1)c1ccc(CNC(=O)N2CC[N+](CCCc3ccccc3)(Cc3ccc(Cl)c(Cl)c3)CC2)o1
inhibition at 12.5 µM (Leishmania infantum [8]): 40%

SMILES: O=C(O)c1ccc(N(Cc2ccc(C(=O)NCCc3ccc(F)cc3)o2)C(=O)N2CCN(CCCc3ccccc3)CC2)cc1
selectivity ratio [3]: > 2

Second part, led by results:

Activity [1]: 77.7%
SMILES: CC(=O)N1CCN(CCCc2ccccc2)CC1

Activity [1]: 85.3%
SMILES: O=C(NCCc1ccc(F)cc1)c1ccco1

Activity [5]: 70.8%
SMILES: O=C(NCCc1ccc(F)cc1)c1ccc(CN(C(=O)N2CCN(CCCN3c4ccccc4Sc4ccc(C(F)(F)F)cc43)CC2)c2ccc(F)cc2)o1
EC50 (Leishmania infantum [4]): 13 µM | CC50 at 72 h [6]: 23.4 µM | selectivity ratio [3]: 1.8 | CC50 at 72 h [7]: 30.7 µM
